Patent US20190330224A1, “ACC INHIBITORS AND USES THEREOF” (Gilead Apollo, LLC, priority 2015, published 2019)
In brackets after ≈: the same amount, converted by molar mass.

Key:
[1] = system: Fusarium virguliforme (Fv); test: Growth inhibition assay of fungal pathogens, Fv; type: cell-based; settings: 48 hours, read-out: Concentration at 90% Inhibition, Fv
Method in brief: (§1)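 Spores in 17% V8 liquid medium were exposed to compound at final 50, 10 and 2 ppm or 2, 0.4 and 0.08 ppm with 2% DMSO. After 48 h, OD600 (blank-subtracted) and visual ratings were compared with the 2% DMSO control to give percent growth inhibition.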

[2] = compound concentration 10 ppm, foliar spray, evaluated 7 days after inoculation
Septoria tritici (St) = test: Growth inhibition assay of fungal pathogens, St; type: cell-based; settings: Zymoseptoria tritici; 48 hours; read-out: Concentration at 90% Inhibition, St
Method in brief: as §1

C. albicans ATCC 90028 = test: Anti-Fungal Activity Assay (broth microtiter MIC), C. albicans; type: cell-based, Candida albicans; settings: Candida albicans, ATCC90028, 48 h, 3 replicates; MIC recorded at 48 h; read-out: MIC C. albicans ATCC 90028
Method in brief: (§2)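 MIC by visual comparison with growth control, read at 48 h (soraphen also at 24 h). Inoculum: colonies from overnight Sabouraud dextrose agar plates at 35° C, suspended in RPMI 1640+MOPS, density from standard curves. Microtiter broth dilution per CLSI M27-A3; compounds from 1 mg/mL DMSO stocks.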

[3] = system: Blumeria graminis f sp. hordei; test: Foliar protection test, barley powdery mildew control; type: in vivo, Blumeria graminis f sp. hordei on Hordeum vulgare cv. Perry; settings: 168 h, compound concentration 50 ppm, foliar spray, evaluated 7 days after inoculation, read-out: Barley Powdery Mildew Control at 50 ppm
Method in brief: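 Barley cv. Perry at first true leaf (6 days) sprayed to wetness on both leaf sides with compound in 5% acetone/0.005% Tween 80, typically at 200, 100, 50, 10 or 2 ppm. Inoculated 24 h later by shaking spores from colonized plants; kept at 20-22 °C, 70% RH. Mildew colonization scored 7 days later as percent control.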

[4] = system: Phytophthora capsici (Pc); test: Growth inhibition assay of fungal pathogens, Pc; type: cell-based; settings: 48 hours, read-out: Concentration at 90% Inhibition, Pc
Method in brief: as §1

Fungal ACC2 = Fungal ACC2 (UniProt Q00955); settings: read-out: Fungal ACC2 (IC50, in vitro ACC2 inhibition)
Chain of Fungal ACC2 (Q00955 whole entry): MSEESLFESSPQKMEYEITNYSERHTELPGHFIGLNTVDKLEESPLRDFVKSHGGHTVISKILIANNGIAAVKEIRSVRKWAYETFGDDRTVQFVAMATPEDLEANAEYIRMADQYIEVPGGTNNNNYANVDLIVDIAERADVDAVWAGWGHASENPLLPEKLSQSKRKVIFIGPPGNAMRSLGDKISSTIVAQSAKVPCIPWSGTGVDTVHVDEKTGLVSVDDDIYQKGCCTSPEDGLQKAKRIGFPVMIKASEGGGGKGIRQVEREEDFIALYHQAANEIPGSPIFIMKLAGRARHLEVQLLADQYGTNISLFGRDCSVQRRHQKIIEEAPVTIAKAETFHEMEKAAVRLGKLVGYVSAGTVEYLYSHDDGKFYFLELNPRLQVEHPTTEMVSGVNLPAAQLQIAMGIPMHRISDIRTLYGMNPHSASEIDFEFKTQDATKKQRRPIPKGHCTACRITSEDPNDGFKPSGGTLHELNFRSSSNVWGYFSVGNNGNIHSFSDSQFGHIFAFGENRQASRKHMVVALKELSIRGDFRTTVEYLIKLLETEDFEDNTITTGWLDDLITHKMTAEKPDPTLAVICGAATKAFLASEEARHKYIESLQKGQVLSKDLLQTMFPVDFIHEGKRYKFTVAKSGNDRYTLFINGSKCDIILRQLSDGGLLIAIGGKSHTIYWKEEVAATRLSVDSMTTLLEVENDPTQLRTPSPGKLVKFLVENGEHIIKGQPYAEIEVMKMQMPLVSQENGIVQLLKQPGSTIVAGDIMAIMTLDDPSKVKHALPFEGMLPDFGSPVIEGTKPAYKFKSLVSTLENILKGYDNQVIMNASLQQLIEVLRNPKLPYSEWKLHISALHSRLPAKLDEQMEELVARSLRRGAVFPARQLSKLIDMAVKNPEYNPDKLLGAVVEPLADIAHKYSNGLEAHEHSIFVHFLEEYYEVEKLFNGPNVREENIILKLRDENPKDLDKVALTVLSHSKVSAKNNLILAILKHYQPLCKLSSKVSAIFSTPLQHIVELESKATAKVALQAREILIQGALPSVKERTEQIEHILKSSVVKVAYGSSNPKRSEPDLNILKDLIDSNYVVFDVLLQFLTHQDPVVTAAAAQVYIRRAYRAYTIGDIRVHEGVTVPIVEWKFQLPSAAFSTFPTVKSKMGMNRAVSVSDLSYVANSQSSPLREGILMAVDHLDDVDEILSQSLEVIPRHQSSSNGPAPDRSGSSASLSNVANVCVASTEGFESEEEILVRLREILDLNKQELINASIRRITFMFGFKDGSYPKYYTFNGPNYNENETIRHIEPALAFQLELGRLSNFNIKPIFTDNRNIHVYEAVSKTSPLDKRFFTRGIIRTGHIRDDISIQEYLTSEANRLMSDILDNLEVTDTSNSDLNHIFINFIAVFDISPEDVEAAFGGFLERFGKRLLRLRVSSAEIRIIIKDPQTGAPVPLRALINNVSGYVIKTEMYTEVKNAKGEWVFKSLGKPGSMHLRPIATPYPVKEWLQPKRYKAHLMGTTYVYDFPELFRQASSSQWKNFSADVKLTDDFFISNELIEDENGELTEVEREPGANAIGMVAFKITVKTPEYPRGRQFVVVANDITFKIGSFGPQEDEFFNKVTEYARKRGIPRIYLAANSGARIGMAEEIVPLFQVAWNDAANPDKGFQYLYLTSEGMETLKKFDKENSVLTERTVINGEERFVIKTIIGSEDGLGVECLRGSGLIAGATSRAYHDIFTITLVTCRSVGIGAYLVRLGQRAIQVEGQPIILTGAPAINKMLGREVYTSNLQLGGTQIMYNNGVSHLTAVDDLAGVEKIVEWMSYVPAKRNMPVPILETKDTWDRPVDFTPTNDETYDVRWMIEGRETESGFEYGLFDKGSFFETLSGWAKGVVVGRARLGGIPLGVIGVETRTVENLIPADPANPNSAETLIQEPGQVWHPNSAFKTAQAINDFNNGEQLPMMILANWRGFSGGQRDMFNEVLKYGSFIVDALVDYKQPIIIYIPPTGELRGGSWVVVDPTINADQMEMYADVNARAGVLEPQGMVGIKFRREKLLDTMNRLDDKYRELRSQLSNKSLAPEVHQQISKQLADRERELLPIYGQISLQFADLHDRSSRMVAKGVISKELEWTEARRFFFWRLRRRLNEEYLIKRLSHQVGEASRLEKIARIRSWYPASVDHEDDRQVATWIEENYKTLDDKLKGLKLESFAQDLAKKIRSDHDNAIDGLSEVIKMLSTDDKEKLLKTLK

Human ACC2 = Human ACC2 (Homo sapiens, UniProt O00763); test: In vitro ACC2 inhibition assay (ADP-Glo), human ACC2; type: biochemical; settings: 5 nM ACC2, 20 μM ATP, 20 μM acetyl-CoA
Chain of Human ACC2 (O00763 whole entry): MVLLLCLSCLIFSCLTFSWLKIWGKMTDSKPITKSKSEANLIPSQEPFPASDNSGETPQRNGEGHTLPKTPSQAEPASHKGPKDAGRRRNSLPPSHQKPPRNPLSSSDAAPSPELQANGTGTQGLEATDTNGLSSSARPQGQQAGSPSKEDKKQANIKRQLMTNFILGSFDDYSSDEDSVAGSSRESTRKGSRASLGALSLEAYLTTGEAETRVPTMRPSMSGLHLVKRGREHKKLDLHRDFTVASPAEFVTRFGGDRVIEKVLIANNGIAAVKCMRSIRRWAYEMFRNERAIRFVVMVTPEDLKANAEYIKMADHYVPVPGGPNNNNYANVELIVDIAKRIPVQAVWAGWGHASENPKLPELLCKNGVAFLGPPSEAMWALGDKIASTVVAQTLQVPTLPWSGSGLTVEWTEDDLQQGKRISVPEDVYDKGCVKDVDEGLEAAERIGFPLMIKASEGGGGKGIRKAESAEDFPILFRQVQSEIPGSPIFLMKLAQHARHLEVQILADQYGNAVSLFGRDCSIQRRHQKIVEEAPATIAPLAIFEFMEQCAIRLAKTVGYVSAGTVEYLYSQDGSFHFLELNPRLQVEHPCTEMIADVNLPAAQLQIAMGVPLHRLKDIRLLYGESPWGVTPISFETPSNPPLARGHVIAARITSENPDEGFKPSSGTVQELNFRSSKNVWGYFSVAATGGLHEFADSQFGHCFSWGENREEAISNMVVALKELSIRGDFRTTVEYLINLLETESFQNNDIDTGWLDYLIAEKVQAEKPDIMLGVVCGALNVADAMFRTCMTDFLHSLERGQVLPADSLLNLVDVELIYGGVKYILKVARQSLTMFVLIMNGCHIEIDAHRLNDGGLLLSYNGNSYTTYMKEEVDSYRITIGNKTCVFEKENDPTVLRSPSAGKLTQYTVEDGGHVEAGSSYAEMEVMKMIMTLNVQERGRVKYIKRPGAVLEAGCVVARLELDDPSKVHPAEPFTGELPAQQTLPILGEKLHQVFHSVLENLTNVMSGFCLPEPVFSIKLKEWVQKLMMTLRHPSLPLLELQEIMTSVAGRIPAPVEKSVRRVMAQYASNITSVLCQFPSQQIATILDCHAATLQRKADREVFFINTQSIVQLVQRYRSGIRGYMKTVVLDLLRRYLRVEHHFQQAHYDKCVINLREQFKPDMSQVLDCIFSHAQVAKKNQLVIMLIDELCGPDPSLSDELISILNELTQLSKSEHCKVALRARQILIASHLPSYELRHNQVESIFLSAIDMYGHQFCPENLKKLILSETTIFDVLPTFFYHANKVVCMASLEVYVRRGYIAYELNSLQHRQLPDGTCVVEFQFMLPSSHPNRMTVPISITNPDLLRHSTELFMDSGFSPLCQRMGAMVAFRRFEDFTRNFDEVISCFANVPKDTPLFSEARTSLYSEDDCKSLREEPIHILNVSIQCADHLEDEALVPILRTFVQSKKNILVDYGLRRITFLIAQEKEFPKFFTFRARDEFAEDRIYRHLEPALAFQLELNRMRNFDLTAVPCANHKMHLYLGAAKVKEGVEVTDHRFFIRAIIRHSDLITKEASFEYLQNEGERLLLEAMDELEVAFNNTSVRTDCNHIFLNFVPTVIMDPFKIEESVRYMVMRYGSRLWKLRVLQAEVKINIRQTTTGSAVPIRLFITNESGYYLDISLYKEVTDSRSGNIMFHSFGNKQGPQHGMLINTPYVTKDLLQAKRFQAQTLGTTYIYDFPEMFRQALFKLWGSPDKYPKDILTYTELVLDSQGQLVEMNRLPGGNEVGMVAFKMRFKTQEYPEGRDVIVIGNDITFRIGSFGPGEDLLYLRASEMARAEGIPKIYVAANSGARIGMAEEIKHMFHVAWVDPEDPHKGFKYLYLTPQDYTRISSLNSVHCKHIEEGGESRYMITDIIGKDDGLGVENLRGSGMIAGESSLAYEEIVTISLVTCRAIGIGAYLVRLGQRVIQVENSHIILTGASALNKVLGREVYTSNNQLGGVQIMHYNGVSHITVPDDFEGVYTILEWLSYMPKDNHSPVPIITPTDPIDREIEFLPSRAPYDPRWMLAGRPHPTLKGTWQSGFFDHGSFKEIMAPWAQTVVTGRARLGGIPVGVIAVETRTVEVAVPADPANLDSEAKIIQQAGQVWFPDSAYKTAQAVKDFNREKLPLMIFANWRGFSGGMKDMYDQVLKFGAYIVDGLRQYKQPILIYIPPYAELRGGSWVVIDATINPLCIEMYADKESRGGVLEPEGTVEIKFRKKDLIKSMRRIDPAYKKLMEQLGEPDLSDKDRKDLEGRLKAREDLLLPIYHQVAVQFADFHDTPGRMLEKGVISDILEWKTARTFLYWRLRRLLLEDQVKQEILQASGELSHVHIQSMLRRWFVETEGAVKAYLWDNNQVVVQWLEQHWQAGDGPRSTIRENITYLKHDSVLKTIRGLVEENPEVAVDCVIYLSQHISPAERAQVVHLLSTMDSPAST

[5] = system: Collectotrichum graminicola (Cg); test: Growth inhibition assay of fungal pathogens, Cg; type: cell-based; settings: 48 hours; read-out: Concentration at 90% Inhibition, Cg
Method in brief: as §1

[6] = system: C. parapsilosis ATCC 22019; test: Anti-Fungal Activity Assay (broth microtiter MIC), C. parapsilosis; type: cell-based, Candida parapsilosis; settings: Lodderomyces parapsilosis, ATCC22019, 48 h, 3 replicates; MIC recorded at 48 h; read-out: MIC C. parapsilosis ATCC 22019
Method in brief: as §2

Diplodia maydis (Dm) = test: Growth inhibition assay of fungal pathogens, Dm; type: cell-based; settings: Stenocarpella maydis; 48 hours; read-out: Concentration at 90% Inhibition, Dm
Method in brief: as §1

[7] = system: Fusarium moniliforme (Fm); test: Growth inhibition assay of fungal pathogens, Fm; type: cell-based; settings: Fusarium verticillioides; 48 hours; read-out: Concentration at 90% Inhibition, Fm
Method in brief: as §1

C. krusei ATCC 6258 = test: Anti-Fungal Activity Assay (broth microtiter MIC), C. krusei; type: cell-based, Candida krusei; settings: Pichia kudriavzevii, ATCC6258, 48 h, 3 replicates; MIC recorded at 48 h; read-out: MIC C. krusei ATCC 6258
Method in brief: as §2

Rhizoctonia solani (Rs) = test: Growth inhibition assay of fungal pathogens, Rs; type: cell-based; settings: 48 hours, read-out: Concentration at 90% Inhibition, Rs
Botrtyis cinerea (Bc) = test: Growth inhibition assay of fungal pathogens, Bc; type: cell-based; settings: 48 hours; read-out: Concentration at 90% Inhibition, Bc
Method in brief: as §1

Structure (SMILES)	IC90 [1]	Barley Powdery Mildew Control at 10 ppm [2]	IC90 (Septoria tritici (St))	MIC (C. albicans ATCC 90028)	pest or weed control at 50 ppm [3]	IC90 [4]	IC50 (Fungal ACC2)	IC50 (Human ACC2)	IC90 [5]	MIC [6]	IC90 (Diplodia maydis (Dm))	IC90 [7]	MIC (C. krusei ATCC 6258)	IC90 (Rhizoctonia solani (Rs))	IC90 (Botrtyis cinerea (Bc))
COCCO[C@@H](Cn1c(=O)n([C@@H]2CCCN(C)C2=O)c(=O)c2c(C)c(-n3nccn3)sc21)c1cc(F)ccc1OC [Compound I-32, 1-((R)-2-(5-fluoro-2-methoxyphenyl)-2-(2-methoxy-ethoxy)ethyl)-5-methyl-3-((R)-1-methyl-2-oxopiperidin-3-yl)-6-(2H-1,2,3-triazol-2-yl)thieno[2,3-d]pyrimidine-2,4(1H,3H)-dione]	> 50 µg/mL	C (provided a compound having from 25 to 49% control of barley powdery mildew)	> 50 µg/mL	2.1 to 4 µg/mL (≈ 3.58 to 6.82 µM)	70 to 84%	> 50 µg/mL	0.7 to 2 nM	10 to 100 nM	> 50 µg/mL	2.1 to 4 µg/mL (≈ 3.58 to 6.82 µM)	> 50 µg/mL	2 µg/mL (≈ 3.41 µM)	2.1 to 4 µg/mL (≈ 3.58 to 6.82 µM)	> 50 µg/mL	10 µg/mL (≈ 17 µM)
COCCO[C@@H](Cn1c(=O)n([C@@H]2CCNC2=O)c(=O)c2c(C)c(-n3cccn3)sc21)c1cc(F)ccc1OC [Compound I-42, 1-((R)-2-(5-fluoro-2-methoxyphenyl)-2-(2-methoxy-ethoxy)ethyl)-5-methyl-3-((R)-2-oxopyrrolidin-3-yl)-6-(1H-pyrazol-1-yl)thieno[2,3-d]pyrimidine-2,4(1H,3H)-dione]	> 50 µg/mL	D (provided a compound having <25% control of barley powdery mildew)	> 50 µg/mL	2.1 to 4 µg/mL (≈ 3.77 to 7.17 µM)	25 to 49%	> 50 µg/mL	2 to 10 nM	10 to 100 nM	> 50 µg/mL	2.1 to 4 µg/mL (≈ 3.77 to 7.17 µM)	> 50 µg/mL	> 50 µg/mL	2.1 to 4 µg/mL (≈ 3.77 to 7.17 µM)	> 50 µg/mL	> 50 µg/mL
COCCO[C@@H](Cn1c(=O)n([C@@H]2CCN(C)C2=O)c(=O)c2c(C)c(-n3cccn3)sc21)c1cc(F)ccc1OC [Compound I-44, 1-((R)-2-(5-fluoro-2-methoxyphenyl)-2-(2-methoxy-ethoxy)ethyl)-5-methyl-3-((R)-1-methyl-2-oxopyrrolidin-3-yl)-6-(1H-pyrazol-1-yl)thieno[2,3-d]pyrimidine-2,4(1H,3H)-dione]	> 50 µg/mL	D (provided a compound having <25% control of barley powdery mildew)	> 50 µg/mL	2.1 to 4 µg/mL (≈ 3.67 to 7 µM)	70 to 84%	> 50 µg/mL	2 to 10 nM	10 to 100 nM	> 50 µg/mL	2.1 to 4 µg/mL (≈ 3.67 to 7 µM)	> 50 µg/mL	10 µg/mL (≈ 17.5 µM)	2.1 to 4 µg/mL (≈ 3.67 to 7 µM)	> 50 µg/mL	> 50 µg/mL
COCCO[C@@H](Cn1c(=O)n([C@H]2CCCNC2=O)c(=O)c2c(C)c(-n3cccn3)sc21)c1cc(F)ccc1OC [Compound I-45, 1-((R)-2-(5-fluoro-2-methoxyphenyl)-2-(2-methoxy-ethoxy)ethyl)-5-methyl-3-((S)-2-oxopiperidin-3-yl)-6-(I H-pyrazol-1-yl)thieno[2,3-d]pyrimidine-2,4(1H,3H)-dione]	> 50 µg/mL	D (provided a compound having <25% control of barley powdery mildew)	> 50 µg/mL	2.1 to 4 µg/mL (≈ 3.67 to 7 µM)	50 to 69%	> 50 µg/mL	2 to 10 nM	10 to 100 nM	> 50 µg/mL	2.1 to 4 µg/mL (≈ 3.67 to 7 µM)	> 50 µg/mL	> 50 µg/mL	2.1 to 4 µg/mL (≈ 3.67 to 7 µM)	> 50 µg/mL	> 50 µg/mL
COCCO[C@@H](Cn1c(=O)n([C@@H]2CCCNC2=O)c(=O)c2c(C)c(-n3cccn3)sc21)c1cc(F)ccc1OC [Compound I-46, 1-((R)-2-(5-fluoro-2-methoxyphenyl)-22-(2-methoxy-ethoxy)ethyl)-5-methyl-3-((R)-2-oxopiperidin-3-yl)-6-(I H-pyrazol-1-yl)thieno[2,3-d]pyrimidine-2,4(1H,3H)-dione]	> 50 µg/mL	D (provided a compound having <25% control of barley powdery mildew)	> 50 µg/mL	2.1 to 4 µg/mL (≈ 3.67 to 7 µM)	50 to 69%	> 50 µg/mL	10 to 100 nM	100 to 1000 nM	> 50 µg/mL	2.1 to 4 µg/mL (≈ 3.67 to 7 µM)	> 50 µg/mL	> 50 µg/mL	2.1 to 4 µg/mL (≈ 3.67 to 7 µM)	> 50 µg/mL	> 50 µg/mL
COCCO[C@@H](Cn1c(=O)n([C@H]2CCCN(C)C2=O)c(=O)c2c(C)c(-n3cccn3)sc21)c1cc(F)ccc1OC [Compound I-47, 1-((R)-2-(5-fluoro-2-methoxyphenyl)-2-(2-methoxy-ethoxy)ethyl)-5-methyl-3-((S)-1-methyl-2-oxopiperidin-3-yl)-6-(I H-pyrazol-1-yl)thieno[2,3-d]pyrimidine-2,4(1H,3H)-dione]	> 50 µg/mL	D (provided a compound having <25% control of barley powdery mildew)	> 50 µg/mL	2.1 to 4 µg/mL (≈ 3.59 to 6.83 µM)	50 to 69%	> 50 µg/mL	2 to 10 nM	100 to 1000 nM	> 50 µg/mL	2.1 to 4 µg/mL (≈ 3.59 to 6.83 µM)	> 50 µg/mL	> 50 µg/mL	2.1 to 4 µg/mL (≈ 3.59 to 6.83 µM)	> 50 µg/mL	> 50 µg/mL
COCCO[C@@H](Cn1c(=O)n([C@@H]2CCCN(C)C2=O)c(=O)c2c(C)c(-n3cccn3)sc21)c1cc(F)ccc1OC [Compound I-48, 1-((R)-2-(5-fluoro-2-methoxyphenyl)-2-(2-methoxy-ethoxy)ethyl)-5-methyl-3-((R)-1-methyl-2-oxopiperidin-3-yl)-6-(1H-pyrazol-1-yl)thieno[2,3-d]pyrimidine-2,4(1H,3H)-dione]	> 50 µg/mL	C (provided a compound having from 25 to 49% control of barley powdery mildew)	> 50 µg/mL	2.1 to 4 µg/mL (≈ 3.59 to 6.83 µM)	50 to 69%	> 50 µg/mL	10 to 100 nM	100 to 1000 nM	> 50 µg/mL	2.1 to 4 µg/mL (≈ 3.59 to 6.83 µM)	> 50 µg/mL	> 50 µg/mL	2.1 to 4 µg/mL (≈ 3.59 to 6.83 µM)	> 50 µg/mL	> 50 µg/mL
COc1ccc(F)cc1[C@H](Cn1c(=O)n([C@H]2CCCNC2=O)c(=O)c2c(C)c(-n3nccn3)sc21)OCCO [Compound I-70, 1-((R)-2-(5-fluoro-2-methoxyphenyl)-2-(2-hydroxy-ethoxy)ethyl)-5-methyl-3-((S)-2-oxopiperidin-3-yl)-6-(2H-1,2,3-triazol-2-yl)thieno[2,3-d]pyrimidine-2,4(1H,3H)-dione]	2 µg/mL (≈ 3.58 µM)	D (provided a compound having <25% control of barley powdery mildew)	> 50 µg/mL	2.1 to 4 µg/mL (≈ 3.76 to 7.16 µM)	50 to 69%	> 50 µg/mL	0.7 to 2 nM	10 to 100 nM	10 µg/mL (≈ 17.9 µM)	2.1 to 4 µg/mL (≈ 3.76 to 7.16 µM)	> 50 µg/mL	2 µg/mL (≈ 3.58 µM)	2.1 to 4 µg/mL (≈ 3.76 to 7.16 µM)	10 µg/mL (≈ 17.9 µM)	2 µg/mL (≈ 3.58 µM)
